Measured values reported in US4372970A, “Benzofuran acetic acid esters and their arthropocidal compositions” (Shell Internationale Research Maatschappij B.V., priority 1979, dated 1983).

Experiments:
Aedes aegypti = experiment: Larvicidal activity against Aedes aegypti (kill after 24 hours, LC50, relative to Resmethrin); type: in vivo; conditions: Aedes aegypti 3 day old larvae, from LC50
Description: (§1) The insecticidal activities of the compounds of the Examples has been shown by the following tests in four species of insects, namely Aedes aegypti, Musca domestica, Blattella germanica, and Tribolium castaneum.
A 0.2 cm^3 sample of a solution of test compound in AR acetone was applied to water (200 cm^3) containing 20 (3 day old) larvae. Kill was recorded after 24 hours. Solutions of different concentration were tested from which the concentration of solution which gives 50% kill (LC50) was determined.
(§2) The results are all expressed as activities relative to the activity of Resmathrin (assigned activity=100), determined by the methods described. [formula]

Tribolium castaneum = experiment: Topical activity against Tribolium castaneum (knockdown after 48 hours, LD50, relative to Resmethrin); type: in vivo; conditions: Tribolium castaneum adults, from LD50
Description: as §1
A 1 μl drop of a solution of test compound in AR acetone was applied topically to adult insects. Knockdown was recorded after 48 hours. Solutions of different concentrations were tested from which the concentration of solution which gives 50% knockdown (LD50) was determined.
as §2

Musca domestica [1] = experiment: Topical activity against Musca domestica, compound alone (24 hours, LC50, relative to Resmethrin); type: in vivo; conditions: Musca domestica 3-day old adult females, without synergist, from LC50
Description: as §1
(§3) (i) A 1 μl drop of a solution of test compound in AR acetone (high purity acetone) was applied to the dorsal thorax of 3-day old adult females. Knockdown was recorded after 24 hours. Solutions of different concentration were tested from which the concentration of solution and therefore the amount of compound which gives 50% kill (LC50) was determined.
as §2

Musca domestica [2] = experiment: Topical activity against Musca domestica with synergist piperonyl butoxide (24 hours, LC50, relative to Resmethrin); type: in vivo; conditions: Musca domestica 3-day old adult females, with 0.5% w/v piperonyl butoxide, from LC50
Description: as §1, §3
(ii) Similar tests were carried out with the amendment that to each test solution, 0.5% w/v of commercial insecticide synergist, piperonyl butoxide, was added.
as §2

Tetranychus cinnabarinus = experiment: Activity against Tetranychus cinnabarinus (dwarf French bean leaf dip test); type: in vivo; conditions: foliar, Tetranychus cinnabarinus adult mites, 48 hours, read-out: Tetranychus % KD at 500.0 ppm
From the text: (§4) The activities of some of the compounds of the Examples has been shown in the following tests in three species of phytophagous arthropods, namely Megoura vicae, Plutella xylostella, Tetranychus cinnabarinus.
(§5) Aqueous suspensions of test compound were made by adding a solution of test compound in AR acetone to a solution of TWEEN 80 (200 p.p.m.) in water.
The two primary leaves of dwarf French beans were reduced to 2.5 cm squares, and they were infested with ca. 20 adult mites. The leaves were then dipped for 4 seconds in the aqueous suspension of the test compound and allowed to dry. Adult mortality was recorded after 48 hours.

Blattella germanica = experiment: Topical activity against Blattella germanica (24 hours, LC50, relative to Resmethrin); type: in vivo; conditions: Blattella germanica 1-4 week old adult males, from LC50
Description: as §1
A 2 μl drop of a solution of the test compound in AR acetone was applied between the rear coxae of 1-4 week old adult males. Knockdown was recorded after 24 hours. Solutions of different concentration were tested from which the concentration of solution which gives 50% kill (LC50) was determined.
as §2

Plutella xylostella = experiment: Knockdown of Plutella xylostella (cabbage leaf dip test); type: in vivo; conditions: foliar, Plutella xylostella 3rd instar larvae, knockdown after 24 hours, read-out: Plutella % KD at 25.0 ppm
From the text: as §4, §5
A 9.0 cm square of cabbage leaf was dipped for 4 seconds in the aqueous suspension of the test compound, and allowed to dry. The leaf was placed on filter paper in a Petri dish (9.0 cm). Five 3rd instar larvae were placed on the leaf, and the dish was placed in a polythene bag containing a wet cotton-wool pad. Knockdown was recorded after 24 hours.

Megoura vicae = experiment: Knockdown of Megoura vicae (dip test); type: in vivo; conditions: Megoura vicae adults, knockdown after 24 hours
From the text: as §4, §5
Adult insects were dipped individually for 4 seconds in the aqueous suspension of test compound and then placed on a filter paper in a Petri dish (9.0 cm diameter) with a p.t.f.e. rim. A 5.0 cm long piece of broad bean stem was added and the lid was put on. Knockdown was recorded after 24 hours.

[3] = Photostability of a deposit exposed to a light source; type: physicochemical; conditions: times greater than Resmethrin
From the text: Photostability is an important feature when the insecticide is applied to foliage. […] A deposit of selected Examples and Resmethrin was exposed to a light source and tested at increasing time intervals.

Row | SMILES | Activity Relative to Resmethrin = 100, Aedes (Aedes aegypti) | Activity Relative to Resmethrin = 100, Tribolium (Tribolium castaneum) | Activity Relative to Resmethrin = 100, Musca Alone (Musca domestica [1]) | Activity Relative to Resmethrin = 100, Musca with Synergist (Musca domestica [2]) | mortality at 500 ppm (Tetranychus cinnabarinus) [%] | Activity Relative to Resmethrin = 100, Blattella (Blattella germanica) | mortality at 25 ppm (Plutella xylostella) [%] | Megoura % KD at 1.0 ppm (Megoura vicae) [%] | photostability half-life relative to Resmethrin [3] [times]
1 | CC(C)C(C(=O)OCc1cccc(Oc2ccccc2)c1)c1ccc2c(Cl)coc2c1 (stereo not drawn) [Example 6, m-Phenoxybenzyl 3-chloro-α-isopropylbenzofuran-6-acetate] | 151 | 80.4 | 20 | 110 | – | – | – | – | –
2 | CC(C)C(C(=O)OC(C#N)c1cccc(Oc2ccccc2)c1)c1ccc2c(Cl)coc2c1 (stereo not drawn) [Example 7, α-Cyano-m-phenoxybenzyl 3-chloro-α-isopropylbenzofuran-6-acetate] | 250 | 411 | 133 | 6060 | 88.8 | 1240 | 100 | 98.3 | –
3 | CC(C)C(C(=O)OC(C#N)c1cccc(Oc2ccccc2)c1)c1ccc(Cl)c2occc12 (stereo not drawn) [Example 12, α-Cyano-m-phenoxybenzyl 7-chloro-α-isopropylbenzofuran-4-acetate] | 417 | 100 | 140 | 454 | < 10 | 207 | – | 15 | –
4 | CC(C)C(C(=O)OC(C#N)c1cccc(Oc2ccccc2)c1)c1ccc2occc2c1 (stereo not drawn) [Example 9, α-Cyano-m-phenoxybenzyl α-isopropylbenzofuran-5-acetate] | 174 | 389 | 186 | 333 | 81.7 | 1378 | 90 | 93.75 | –
5 | CC(C)C(C(=O)OC(C#N)c1cccc(Oc2ccccc2)c1)c1ccc(Cl)c2oc(Br)cc12 (stereo not drawn) [Example 13, α-Cyano-m-phenoxybenzyl 2-bromo-7-chloro-α-isopropylbenzofuran-4-acetate] | 267 | < 2 | 10 | 417 | < 10 | < 10 | – | 86.6 | –
6 | CC(C)C(C(=O)OC(C#N)c1cccc(Oc2ccccc2)c1)c1cccc2occc12 (stereo not drawn) [Example 8, α-Cyano-m-phenoxybenzyl α-isopropylbenzofuran-4-acetate] | 108 | 194 | 125 | 926 | 100 | 206 | 87.5 | 66.9 | –
7 | CC(C)C(C(=O)OCc1cccc(Oc2ccccc2)c1)c1cccc2occc12 (stereo not drawn) [Example 5, m-Phenoxybenzyl α-isopropylbenzofuran-4-acetate] | 211 | 50 | 9 | 27 | 33.2 | 20.7 | 57.5 | 32.5 | –
8 | CC(C)C(C(=O)OC(C#N)c1cccc(Oc2ccccc2)c1)c1ccc2ccoc2c1 (stereo not drawn) [Example 2, α-Cyano-m-phenoxybenzyl α-isopropylbenzofuran-6-acetate] | 286 | 583 | 123 | 606 | 83.7 | 459 | 97.5 | 97.5 | 17.5
9 | Cc1oc2cc(C(C(=O)OC(C#N)c3cccc(Oc4ccccc4)c3)C(C)C)ccc2c1C (stereo not drawn) [Example 14, α-Cyano-m-phenoxybenzyl 2,3-dimethyl-α-isopropylbenzofuran-6-acetate] | 200 | < 17.5 | 12 | 179 | 46.7 | 62 | – | 93.3 | –
10 | CC(C)C(C(=O)OC(C#N)c1cccc(Oc2ccccc2)c1)c1ccc2sccc2c1 (stereo not drawn) [Example 4, α-Cyano-m-phenoxybenzyl α-isopropylbenzo(b)thiophene-5-acetate] | 105 | – | 16 | 400 | – | 62 | – | – | 21.5
11 | CC(C)C(C(=O)OCc1cccc(Oc2ccccc2)c1)c1ccc2ccoc2c1 (stereo not drawn) [Example 1, m-Phenoxybenzyl α-isopropylbenzofuran-6-acetate] | 182 | 102.9 | 88 | 87 | 65.5 | 197 | 97.5 | 63.7 | –
12 | CC(C)C(C(=O)OC(C#N)c1cccc(Oc2ccccc2)c1)c1ccc2c(c1)CCO2 (stereo not drawn) [Example 10, α-Cyano-m-phenoxybenzyl 2,3-dihydro-α-isopropylbenzofuran-5-acetate] | 286 | 159 | 18 | 575 | < 20 | 207 | – | 0 | –
13 | Cc1oc2cc(C(C(=O)OCc3cccc(Oc4ccccc4)c3)C(C)C)ccc2c1C (stereo not drawn) [Example 15, m-Phenoxybenzyl 2,3-dimethyl-α-isopropylbenzofuran-6-acetate] | 118 | 4.7 | 1 | 24 | 100 | < 10 | – | 90 | –
14 | CC(C)C(C(=O)OCc1cccc(Oc2ccccc2)c1)c1ccc2sccc2c1 (stereo not drawn) [Example 3, m-Phenoxybenzyl α-isopropylbenzo(b)thiophene-5-acetate] | 6.5 | 29.2 | 17 | 100 | 76.7 | 62 | 47.5 | 61.25 | –
15 | CC(C)C(C(=O)OC(C#N)c1cccc(Oc2ccccc2)c1)c1ccc2cc(Br)oc2c1 (stereo not drawn) [Example 11, α-Cyano-m-phenoxybenzyl 2-bromo-α-isopropylbenzofuran-6-acetate] | 160 | 88 | 68 | 417 | < 20 | 207 | – | 35 | –
